Measured values published in ChEMBL document CHEMBL4190279 (Eur J Med Chem, 2017).

What was measured:
[1] = GPx-like activity of the compound assessed as velocity for H2O2 reduction by measuring oxidation of PhSH to (PhS)2 at 50 uM measured for 180 secs by spectrophotometric analysis; format: functional
[2] = GPx-like activity of the compound assessed as H2O2 reduction by measuring oxidation of PhSH to (PhS)2 at 50 uM measured for 180 secs by spectrophotometric analysis relative to control; format: functional
[3] = GPx-like activity of the compound assessed as half life for H2O2 reduction by measuring oxidation of PhSH to (PhS)2 at 50 uM measured for 180 secs by spectrophotometric analysis relative to control; format: functional
Acetylcholinesterase [4] = biological target: T1, Acetylcholinesterase (Electrophorus electricus, UniProt O42275); assay: Non-competitive inhibition of electric eel AChE assessed as enzyme-inhibitor complex using p-nitrophenyl acetate as substrate by Lineweaver-Burk plot analysis
T1 sequence (O42275 whole entry): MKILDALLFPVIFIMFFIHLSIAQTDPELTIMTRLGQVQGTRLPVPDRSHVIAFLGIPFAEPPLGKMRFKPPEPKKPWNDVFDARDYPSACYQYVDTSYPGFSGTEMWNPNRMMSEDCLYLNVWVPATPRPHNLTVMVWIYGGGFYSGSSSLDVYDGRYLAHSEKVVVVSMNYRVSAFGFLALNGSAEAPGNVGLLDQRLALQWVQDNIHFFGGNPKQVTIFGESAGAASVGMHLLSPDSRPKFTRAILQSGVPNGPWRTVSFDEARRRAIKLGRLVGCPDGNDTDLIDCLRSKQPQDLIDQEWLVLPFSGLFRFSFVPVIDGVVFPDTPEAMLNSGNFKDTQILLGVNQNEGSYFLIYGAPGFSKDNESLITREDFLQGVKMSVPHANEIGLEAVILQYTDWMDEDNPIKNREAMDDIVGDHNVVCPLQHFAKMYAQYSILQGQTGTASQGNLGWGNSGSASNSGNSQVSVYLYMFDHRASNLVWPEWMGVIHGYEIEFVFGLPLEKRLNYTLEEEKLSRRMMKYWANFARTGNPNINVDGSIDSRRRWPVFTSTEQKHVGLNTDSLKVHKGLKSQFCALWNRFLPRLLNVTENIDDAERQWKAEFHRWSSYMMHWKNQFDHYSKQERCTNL

Acetylcholinesterase [5] = biological target: T1, Acetylcholinesterase; assay: Non-competitive inhibition of electric eel AChE assessed as enzyme-substrate-inhibitor complex using p-nitrophenyl acetate as substrate by Lineweaver-Burk plot analysis
Cholinesterase [6] = biological target: T2, Cholinesterase (Equus caballus, UniProt P81908)
T2 sequence (P81908 whole entry): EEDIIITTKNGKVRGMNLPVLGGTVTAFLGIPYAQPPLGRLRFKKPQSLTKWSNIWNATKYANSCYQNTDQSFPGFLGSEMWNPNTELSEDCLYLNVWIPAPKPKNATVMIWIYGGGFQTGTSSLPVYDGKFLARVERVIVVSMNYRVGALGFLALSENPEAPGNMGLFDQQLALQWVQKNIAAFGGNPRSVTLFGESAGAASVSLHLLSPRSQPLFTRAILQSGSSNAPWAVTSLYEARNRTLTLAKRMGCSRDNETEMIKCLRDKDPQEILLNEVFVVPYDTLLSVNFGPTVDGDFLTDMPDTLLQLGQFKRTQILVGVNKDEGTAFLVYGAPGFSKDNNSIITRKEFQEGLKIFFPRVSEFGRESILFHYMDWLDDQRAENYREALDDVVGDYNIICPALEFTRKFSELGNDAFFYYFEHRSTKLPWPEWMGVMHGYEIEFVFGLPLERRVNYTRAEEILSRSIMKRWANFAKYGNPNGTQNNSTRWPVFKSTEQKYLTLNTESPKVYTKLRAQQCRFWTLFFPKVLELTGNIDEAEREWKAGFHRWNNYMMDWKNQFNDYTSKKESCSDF
Description: Competitive inhibition of equine serum BuChE assessed as enzyme-inhibitor complex using p-nitrophenyl butyrate as substrate by Lineweaver-Burk plot analysis

A549 [7] = assay: cells; conditions: Homo sapiens, A549, 48 h
Description: Antiproliferative activity against human A549 cells after 48 hrs by SRB assay

HBL-100 [8] = assay: cells; conditions: Homo sapiens, HBL-100, 48 h
Description: Antiproliferative activity against human HBL100 cells after 48 hrs by SRB assay

HeLa [9] = assay: cells; conditions: Homo sapiens, 48 h
Description: Antiproliferative activity against human HeLa cells after 48 hrs by SRB assay

SW1573 [10] = assay: cells; conditions: Homo sapiens, SW1573, 48 h
Description: Antiproliferative activity against human SW1573 cells after 48 hrs by SRB assay

T47D [11] = assay: cells; conditions: Homo sapiens, 48 h
Description: Antiproliferative activity against human T47D cells after 48 hrs by SRB assay

WiDr [12] = assay: cells; conditions: Homo sapiens, 48 h
Description: Antiproliferative activity against human WiDr cells after 48 hrs by SRB assay

[13] = biological target: Amyloid-beta precursor protein (Homo sapiens) (UniProt P05067); assay: Inhibition of amyloid beta (1 to 42) (unknown origin) self aggregation at 50 uM relative to control
Amyloid-beta precursor protein (Homo sapiens), sequence (P05067 whole entry): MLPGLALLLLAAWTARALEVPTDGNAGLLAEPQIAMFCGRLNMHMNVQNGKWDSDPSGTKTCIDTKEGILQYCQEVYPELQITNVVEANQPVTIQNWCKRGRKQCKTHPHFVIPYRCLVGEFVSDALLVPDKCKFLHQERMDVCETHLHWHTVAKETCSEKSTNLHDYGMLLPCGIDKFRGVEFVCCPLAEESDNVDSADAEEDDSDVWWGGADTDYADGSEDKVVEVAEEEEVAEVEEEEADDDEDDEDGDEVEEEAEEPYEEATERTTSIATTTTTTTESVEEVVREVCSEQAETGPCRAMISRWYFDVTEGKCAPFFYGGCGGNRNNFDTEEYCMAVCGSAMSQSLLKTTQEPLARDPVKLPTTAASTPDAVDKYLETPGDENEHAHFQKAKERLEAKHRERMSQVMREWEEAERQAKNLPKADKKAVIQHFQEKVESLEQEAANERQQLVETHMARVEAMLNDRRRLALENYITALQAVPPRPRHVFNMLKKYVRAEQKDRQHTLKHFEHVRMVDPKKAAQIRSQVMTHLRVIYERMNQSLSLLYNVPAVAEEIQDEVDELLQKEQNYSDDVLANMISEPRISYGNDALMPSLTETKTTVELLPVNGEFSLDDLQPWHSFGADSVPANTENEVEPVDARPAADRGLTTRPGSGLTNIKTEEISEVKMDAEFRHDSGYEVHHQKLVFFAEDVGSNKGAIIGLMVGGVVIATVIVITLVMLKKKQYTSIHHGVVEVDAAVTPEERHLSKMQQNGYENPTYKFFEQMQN

Acetylcholinesterase [14] = biological target: T1, Acetylcholinesterase; assay: Competitive inhibition of electric eel AChE assessed as enzyme-inhibitor complex using p-nitrophenyl acetate as substrate by Lineweaver-Burk plot analysis
Cholinesterase [15] = biological target: T2, Cholinesterase; assay: Non-competitive inhibition of equine serum BuChE assessed as enzyme-inhibitor complex using p-nitrophenyl butyrate as substrate by Lineweaver-Burk plot analysis
Cholinesterase [16] = biological target: T2, Cholinesterase; assay: Non-competitive inhibition of equine serum BuChE assessed as enzyme-substrate-inhibitor complex using p-nitrophenyl butyrate as substrate by Lineweaver-Burk plot analysis
in vitro = conditions: human, hTERT-BJ cells
Description: Antiproliferative activity against human hTERT-BJ cells after 48 hrs by SRB assay

[17] = Selectivity index, ratio of GI50 for human hTERT-BJ cells to GI50 for human WiDr cells; format: toxicity; conditions: hTERT-BJ cells versus WiDr cells, read-out: RatioGI50
Acetylcholinesterase [18] = biological target: T1, Acetylcholinesterase; assay: Mixed-type inhibition of electric eel AChE assessed as enzyme-inhibitor complex using p-nitrophenyl acetate as substrate by Lineweaver-Burk plot analysis
Acetylcholinesterase [19] = biological target: T1, Acetylcholinesterase; assay: Mixed-type inhibition of electric eel AChE assessed as enzyme-substrate-inhibitor complex using p-nitrophenyl acetate as substrate by Lineweaver-Burk plot analysis
Cholinesterase [20] = biological target: T2, Cholinesterase; assay: Mixed-type inhibition of equine serum BuChE assessed as enzyme-inhibitor complex using p-nitrophenyl butyrate as substrate by Lineweaver-Burk plot analysis
Cholinesterase [21] = biological target: T2, Cholinesterase; assay: Mixed-type inhibition of equine serum BuChE assessed as enzyme-substrate-inhibitor complex using p-nitrophenyl butyrate as substrate by Lineweaver-Burk plot analysis
[22] = Selectivity index, ratio of Ki for equine serum BuChE assessed as enzyme-substrate-inhibitor complex to Ki for electric eel AChE assessed as enzyme-substrate-inhibitor complex
Acetylcholinesterase [23] = biological target: T3, Acetylcholinesterase (Homo sapiens, UniProt P22303); assay: Inhibition of human serum AChE using acetylthiocholine iodide as substrate preincubated for 20 mins followed by substrate addition measured after 5 mins by Ellman's method
T3 sequence (P22303 whole entry): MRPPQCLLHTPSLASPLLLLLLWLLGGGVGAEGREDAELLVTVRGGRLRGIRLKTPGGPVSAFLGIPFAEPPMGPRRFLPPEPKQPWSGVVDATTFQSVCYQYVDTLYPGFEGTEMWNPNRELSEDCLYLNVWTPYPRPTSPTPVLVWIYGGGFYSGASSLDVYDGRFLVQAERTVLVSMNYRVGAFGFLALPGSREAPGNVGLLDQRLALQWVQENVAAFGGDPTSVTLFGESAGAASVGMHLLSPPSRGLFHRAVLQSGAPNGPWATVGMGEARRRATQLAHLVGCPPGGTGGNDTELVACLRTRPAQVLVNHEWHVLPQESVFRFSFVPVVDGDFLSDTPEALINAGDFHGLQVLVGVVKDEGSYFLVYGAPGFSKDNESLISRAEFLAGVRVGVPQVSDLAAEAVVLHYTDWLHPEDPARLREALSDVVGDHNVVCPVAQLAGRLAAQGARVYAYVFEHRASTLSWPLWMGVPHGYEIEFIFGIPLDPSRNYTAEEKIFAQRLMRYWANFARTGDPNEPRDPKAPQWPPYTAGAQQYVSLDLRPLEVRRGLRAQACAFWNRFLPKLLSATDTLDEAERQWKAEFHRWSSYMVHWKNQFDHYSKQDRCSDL

Acetylcholinesterase [24] = biological target: T3, Acetylcholinesterase; assay: Potency index, ratio of cystamine-tacrine IC50 to compound IC50 for human AChE
[25] = biological target: Amyloid-beta precursor protein (Homo sapiens) (UniProt P05067); assay: Inhibition of amyloid beta (1 to 42) (unknown origin) self aggregation at 50 uM after 24 hrs by ThT-based fluorometric method relative to control
N2a = assay: Cytotoxicity against mouse N2A cells assessed as reduction in cell viability at 50 uM after 24 hrs by MTT assay; format: cell-based
HBL-100 [26] = assay: Potency index, ratio of 5-FU GI50 to compound GI50 for human HBL100 cells; format: functional
HeLa [27] = assay: Potency index, ratio of 5-FU GI50 to compound GI50 for human HeLa cells; format: functional
SW1573 [28] = assay: Potency index, ratio of 5-FU GI50 to compound GI50 for human SW1573 cells; format: functional
T47D [29] = assay: Potency index, ratio of 5-FU GI50 to compound GI50 for human T47D cells; format: functional
WiDr [30] = assay: Potency index, ratio of 5-FU GI50 to compound GI50 for human WiDr cells; format: functional
HBL-100 [31] = assay: Potency index, ratio of cisplatin GI50 to compound GI50 for human HBL100 cells; format: functional
HeLa [32] = assay: Potency index, ratio of cisplatin GI50 to compound GI50 for human HeLa cells; format: functional
SW1573 [33] = assay: Potency index, ratio of cisplatin GI50 to compound GI50 for human SW1573 cells; format: functional
T47D [34] = assay: Potency index, ratio of cisplatin GI50 to compound GI50 for human T47D cells; format: functional
WiDr [35] = assay: Potency index, ratio of cisplatin GI50 to compound GI50 for human WiDr cells; format: functional
A549 [36] = assay: Potency index, ratio of cisplatin GI50 to compound GI50 for human A549 cells; format: functional
[37] = Potency index, ratio of compound velocity to ebselen velocity for GPx-like activity assessed as H2O2 reduction by measuring oxidation of PhSH to (PhS)2; format: functional
[38] = Potency index, ratio of compound velocity to diphenyl diselenide velocity for GPx-like activity assessed as H2O2 reduction by measuring oxidation of PhSH to (PhS)2; format: functional

| Structure (SMILES) | Activity [1] | fold change (FC) [2] | T1/2 [3] | GI50 (A549 [7]) | GI50 (HBL-100 [8]) | GI50 (HeLa [9]) | GI50 (SW1573 [10]) | GI50 (T47D [11]) | GI50 (WiDr [12]) | GI50 at 48 h (in vitro) | Ki (Cholinesterase [20]) | Ki (Cholinesterase [21]) | Ratio Ki [22] | other results |
| --- | --- | --- | --- | --- | --- | --- | --- | --- | --- | --- | --- | --- | --- | --- |
| c1ccc([Se][Se]c2ccccc2)cc1 | 14.8 µM/min | 1.9 | 2.81 h | – | – | – | – | – | – | – | – | – | – | – |
| N#CSCCCCCNc1c2c(nc3ccccc13)CCCC2 | 23.1 µM/min | 3 | 1.8 h | 14000 nM | 15000 nM | 11000 nM | 15000 nM | 8300 nM | 4100 nM | – | – | – | – | Ki (Acetylcholinesterase [4]): 50.1 nM; Ki (Acetylcholinesterase [5]): 50.1 nM; Ki (Cholinesterase [6]): 228 nM |
| c1ccc2c(NCCCCCCCNc3c4c(nc5ccccc35)CCCC4)c3c(nc2c1)CCCC3 | – | – | – | – | – | – | – | – | – | – | – | – | – | inhibition [13]: 71.1% |
| Cc1ccc(NC(=[Se])NCCCCCCNc2c3c(nc4ccccc24)CCCC3)cc1 | 29.6 µM/min | 3.8 | 1.41 h | 5500 nM | 8100 nM | 4100 nM | 3700 nM | 3000 nM | 2200 nM | – | – | – | – | Ki (Acetylcholinesterase [14]): 7.6 nM; Ki (Cholinesterase [15]): 10.7 nM; Ki (Cholinesterase [16]): 10.7 nM |
| O=c1[nH]cc(F)c(=O)[nH]1 [FLUOROURACIL] | – | – | – | – | 5500 nM | 15000 nM | 4300 nM | 47000 nM | 49000 nM | 5500 nM | – | – | – | – |
| c1ccc2c(NCCSSCCNc3c4c(nc5ccccc35)CCCC4)c3c(nc2c1)CCCC3 | – | – | – | – | – | – | – | – | – | – | – | – | – | inhibition [13]: 66.3% |
| c1ccc2c(NCCCCCSSCCCCCNc3c4c(nc5ccccc35)CCCC4)c3c(nc2c1)CCCC3 | 35.5 µM/min | 4.6 | 1.17 h | 1400 nM | 1200 nM | 1000 nM | 290 nM | 950 nM | 300 nM | 1400 nM | 166 nM | 422 nM | 74 | selectivity ratio [17]: ≤ 4.7; Ki (Acetylcholinesterase [18]): 3.1 nM; Ki (Acetylcholinesterase [19]): 5.7 nM; IC50 (Acetylcholinesterase [23]): 1.62 nM; Ratio IC50 (Acetylcholinesterase [24]): 3; inhibition [25]: 61.8%; Activity (N2a): Non-Toxic; RatioGI50 (HBL-100 [26]): <=306; RatioGI50 (HeLa [27]): <=306; RatioGI50 (SW1573 [28]): <=306; RatioGI50 (T47D [29]): <=306; RatioGI50 (WiDr [30]): <=306; RatioGI50 (HBL-100 [31]): <=162; RatioGI50 (HeLa [32]): <=162; RatioGI50 (SW1573 [33]): <=162; RatioGI50 (T47D [34]): <=162; RatioGI50 (WiDr [35]): <=162; RatioGI50 (A549 [36]): <=162 |
| N#CSCCCCCCNc1c2c(nc3ccccc13)CCCC2 | 21.6 µM/min | 2.8 | 1.93 h | 8300 nM | 11000 nM | 8100 nM | 5100 nM | 5500 nM | 2400 nM | – | 252 nM | 673 nM | – | Ki (Acetylcholinesterase [14]): 18.5 nM |
| O=c1c2ccccc2[se]n1-c1ccccc1 | 2 µM/min | 0.3 | 20.8 h | – | – | – | – | – | – | – | – | – | – | – |
| O=C(C[Se]c1ccccc1)Nc1c2c(nc3ccccc13)CCCC2 | 3.6 µM/min | 0.5 | 11.6 h | 37000 nM | 35000 nM | 32000 nM | > 100000 nM | 53000 nM | > 100000 nM | – | 518 nM | 1710 nM | 0.5 | Ki (Acetylcholinesterase [18]): 8420 nM; Ki (Acetylcholinesterase [19]): 3540 nM |
| N#C[Se]CCCCCNc1c2c(nc3ccccc13)CCCC2 | 22.4 µM/min | 2.9 | 1.86 h | 1200 nM | 1100 nM | 370 nM | 650 nM | 700 nM | 650 nM | 360 nM | – | – | – | Ki (Acetylcholinesterase [14]): 34.5 nM; Ki (Cholinesterase [6]): 206 nM |
| COc1ccc(NC(=[Se])NCCCCCCNc2c3c(nc4ccccc24)CCCC3)cc1 | 82.9 µM/min | 10.6 | 0.503 h | – | – | – | – | – | – | – | – | – | 1.1 | Ki (Acetylcholinesterase [4]): 26.6 nM; Ki (Acetylcholinesterase [5]): 26.6 nM; Ki (Cholinesterase [15]): 28.6 nM; Ki (Cholinesterase [16]): 28.6 nM; Ratio [37]: 41.4; Ratio [38]: 5.6 |
| c1ccc2c(NCCCCCCSSCCCCCCNc3c4c(nc5ccccc35)CCCC4)c3c(nc2c1)CCCC3 | 32.8 µM/min | 4.2 | 1.27 h | 1100 nM | 990 nM | 330 nM | 240 nM | 370 nM | 200 nM | 220 nM | 243 nM | 70 nM | 4.7 | Ki (Acetylcholinesterase [4]): 14.8 nM; Ki (Acetylcholinesterase [5]): 14.8 nM; RatioGI50 (HBL-100 [26]): <=306; RatioGI50 (HeLa [27]): <=306; RatioGI50 (SW1573 [28]): <=306; RatioGI50 (T47D [29]): <=306; RatioGI50 (WiDr [30]): <=306; RatioGI50 (HBL-100 [31]): <=162; RatioGI50 (HeLa [32]): <=162; RatioGI50 (SW1573 [33]): <=162; RatioGI50 (T47D [34]): <=162; RatioGI50 (WiDr [35]): <=162; RatioGI50 (A549 [36]): <=162 |
